Values of other authors as cited in patent US11248001B2, “PCSK9 inhibitors and methods of use thereof” (ASTRAZENECA AB, priority 2019, dated 2022).

B1: evolocumab (antibody, chains of the INN, looked up, V domains shown)
VH: EVQLVQSGAEVKKPGASVKVSCKASGYTLTSYGISWVRQAPGQGLEWMGWVSFYNGNTNYAQKLQGRGTMTTDPSTSTAYMELRSLRSDDTAVYYCARGYGMDVWGQGTTVTVSS
VL: ESALTQPASVSGSPGQSITISCTGTSSDVGGYNSVSWYQQHPGKAPKLMIYEVSNRPSGVSNRFSGSKSGNTASLTISGLQAEDEADYYCNSYTSTSMVFGGGTKLTVL

Conditions: clinical trials, patients

Molecule | decrease in LDL levels
alirocumab | about 50%
B1 | 60-75%
